The text below walks through data of patent publication US20120101083A1, “S1P1 AGONISTS COMPRISING A BICYCLIC N-CONTAINING RING” (GLAXO GROUP LIMITED, priority 2009, published 2012).

Broadly, the EC50 is the midpoint of the concentration-response curve.

The structures appear in SMILES notation. Where a name gives a salt, the structure may show the parent alone.

The target of the assay is T1, S1P1 receptor (S1P1 expressing RH7777 membranes) (Homo sapiens, UniProt P21453).
T1 construct: expressed in transfected cells; host or cells: RH7777 cells (membranes)
T1 sequence (P21453 whole entry): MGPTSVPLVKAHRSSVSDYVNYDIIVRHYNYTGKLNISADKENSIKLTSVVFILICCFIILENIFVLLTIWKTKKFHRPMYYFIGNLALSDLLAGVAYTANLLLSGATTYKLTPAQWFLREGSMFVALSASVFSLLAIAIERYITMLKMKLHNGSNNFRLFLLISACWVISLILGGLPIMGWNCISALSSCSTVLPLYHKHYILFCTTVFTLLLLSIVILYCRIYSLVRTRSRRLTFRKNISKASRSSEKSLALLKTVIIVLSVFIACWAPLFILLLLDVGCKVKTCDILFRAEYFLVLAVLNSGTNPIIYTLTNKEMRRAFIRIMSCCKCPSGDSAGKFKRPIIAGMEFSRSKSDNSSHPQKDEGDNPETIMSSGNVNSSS
As to the kind of experiment: S1P1 GTPγS assay. The format is biochemical. Conditions: tested in one of the above S1P1 assays (two GTPγS formats). How it is done:
The potencies and efficacies of the compounds of this invention for the S1P1 receptor can be determined by GTPγS assay performed on the human cloned receptor as described herein.
Membrane preparation for S1P1 GTPγS assay
All steps were performed at 4° C. Cells were homogenised within a glass Waring blender for 2 bursts of 15 secs in 200 mls of buffer (50 mM HEPES, 1 mM leupeptin, 25 μg/ml bacitracin, 1 mM EDTA, 1 mM PMSF, 2 μM pepstatin A). The blender was plunged into ice for 5 mins after the first burst and 10-40 mins after the final burst to allow foam to dissipate. The material was then spun at 500 g for 20 mins and the supernatant spun for 36 mins at 48,000 g. The pellet was resuspended in the same buffer as above but without PMSF and pepstatin A. The material was then forced through a 0.6 mm needle, made up to the required volume, (usually x4 the volume of the original cell pellet), aliquoted and stored frozen at −80° C.
S1P1 expressing RH7777 membranes (1.5 μg/well) membranes (1.5 μg/well) were homogenised by passing through a 23 G needle. These were then adhered to WGA-coated SPA beads (0.125 mg/well) in assay buffer (HEPES 20 mM, MgCl2 10 mM, NaCl 100 mM and pH adjusted to 7.4 using KOH 5M). GDP 10 μM FAC and saponin 90 μg/ml FAC were also added
After 30 minutes precoupling on ice, the bead and membrane suspension was dispensed into white Greiner polypropylene LV 384-well plates (5 μl/well), containing […] of compound. 5 μl/well [^35S]-GTPγS (0.5 nM for S1P1 or 0.3 nM for S1P3 final radioligand concentration) made in assay buffer was then added to the plates. The final assay cocktail (10.1 μl) was then sealed, spun on a centrifuge, then read immediately on a Viewlux instrument.
Alternatively, after 30 minutes precoupling on ice, the bead and membrane suspension was mixed with ^35S]-GTPγS (0.5 nM final radioligand concentration) in assay buffer (HEPES 20 mM, MgCl2 10 mM, NaCl 100 mM and pH adjusted to 7.4 using KOH 5M) in a 1:1 ratio. The bead, membrane and radioligand suspension was dispensed into white Greiner polypropylene low volume 384-well plates (10 μl/well), containing 0.1 μl of a solution of test compound in 100% DMSO. The final assay cocktail (10.1 μl) was then sealed, spun on a centrifuge, then read immediately on a Viewlux instrument.
`CC(C)Oc1ccc(-c2nc(-c3ccc4c(c3)CCN(C(=O)CNCCO)CC4)no2)cc1C#N` [Example 86, 5-(3-{3-[N-(2-hydroxyethyl)glycyl]-2,3,4,5-tetrahydro-1H-3-benzazepin-7-yl}-1,2,4-oxadiazol-5-yl)-2-[(1-methylethyl)oxy]benzonitrile hydrochloride]: the concentration giving a half-maximal response (EC50) is no more than 100 nM.
The value for `CC(C)Oc1ccc(-c2nc(-c3ccc4c(c3)CCN(C(=O)CN[C@H](C)CO)CC4)no2)cc1C#N` [Example 98, 5-[3-(3-{N-(1R)-2-hydroxy-1-methylethyl]glycyl}-2,3,4,5-tetrahydro-1H-3-benzazepin-7-yl)-1,2,4-oxadiazol-5-yl]-2-[(1-methylethyl)oxy]benzonitrile hydrochloride] was no more than 10 nM; that for `CCCOc1ncc(-c2nc(-c3ccc4c(c3)CCN(C(CO)CO)CC4)no2)cc1C#N` [Example 109, 5-(3-{3-[2-hydroxy-1-(hydroxymethyl)ethyl]-2,3,4,5-tetrahydro-1H-3-benzazepin-7-yl}-1,2,4-oxadiazol-5-yl)-2-(propyloxy)-3-pyridinecarbonitrile] was no more than 1000 nM; that for `CCCOc1ncc(-c2nc(-c3ccc4c(c3)CCN(C[C@H](O)CO)CC4)no2)cc1C#N` [Example 115, 5-(3-{3-[(2S)-2,3-dihydroxypropyl]-2,3,4,5-tetrahydro-1H-3-benzazepin-7-yl}-1,2,4-oxadiazol-5-yl)-2-(propyloxy)-3-pyridinecarbonitrile] was no more than 1000 nM.
In turn, `Cc1c(-c2noc(-c3ccc(OC(C)C)c(C#N)c3)n2)ccc2c1CCN(CC(=O)NC[C@@H](C)O)C2` [Example 120, 2-[6-(5-{3-cyano-4-[(1-methylethyl)oxy]phenyl}-1,2,4-oxadiazol-3-yl)-5-methyl-3,4-dihydro-2(1H)-isoquinolinyl]-N-[(2R)-2-hydroxypropyl]acetamide hydrochloride] gave a concentration giving a half-maximal response (EC50) of no more than 10 nM.
With `CC(C)Oc1ccc(-c2nc(-c3ccc4c(c3)CCN(C(=O)[C@H](N)[C@@H](C)O)CC4)no2)cc1C#N` [Example 58, 5-[3-(3-D-allothreonyl-2,3,4,5-tetrahydro-1H-3-benzazepin-7-yl)-1,2,4-oxadiazol-5-yl]-2-[(1-methylethyl)oxy]benzonitrile], the EC50 is no more than 100 nM.
The same measure for `CC(C)Oc1ccc(-c2nc(-c3ccc4c(c3)CCN(C(=O)CCCN)CC4)no2)cc1C#N` [Example 63, 5-{3-[3-(4-aminobutanoyl)-2,3,4,5-tetrahydro-1H-3-benzazepin-7-yl]-1,2,4-oxadiazol-5-yl}-2-[(1-methylethyl)oxy]benzonitrile]: no more than 100 nM.
The same measure for `CCCNc1ncc(-c2nc(-c3ccc4c(c3C)CCN(C(CO)CO)CC4)no2)cc1C#N` [Example 149, 5-(3-{3-[2-hydroxy-1-(hydroxymethyl)ethyl]-6-methyl-2,3,4,5-tetrahydro-1H-3-benzazepin-7-yl}-1,2,4-oxadiazol-5-yl)-2-(propylamino)-3-pyridinecarbonitrile]: no more than 1000 nM; for `CCCNc1ncc(-c2nc(-c3ccc4c(c3)CCN(C[C@H](O)CO)CC4)no2)cc1C#N` [Example 143, 5-(3-{34[(2S)-2,3-dihydroxypropyl]-2,3,4,5-tetrahydro-1H-3-benzazepin-7-yl}-1,2,4-oxadiazol-5-yl)-2-(propylamino)-3-pyridinecarbonitrile hydrochloride]: no more than 1000 nM; for `Cc1c(-c2nnc(-c3ccc(OC(C)C)c(C#N)c3)s2)ccc2c1CCN(CCC(=O)N(C)C)C2` [Example 12, 3-[6-(5-{3-Cyano-4-[(1-methylethyl)oxy]phenyl}-1,3,4-thiadiazol-2-yl)-5-methyl-3,4-dihydro-2(1H)-isoquinolinyl]-N,N-dimethylpropanamide]: no more than 100 nM.
`CC(C)Oc1ncc(-c2nc(-c3ccc4c(c3)CCN(CC(O)CO)CC4)no2)cc1C#N` (stereo in doubt) [Example 97, 5-(3-{3-[(2R)-2,3-dihydroxypropyl]-2,3,4,5-tetrahydro-1H-3-benzazepin-7-yl}-1,2,4-oxadiazol-5-yl)-2-[(1-methylethyl)oxy]-3-pyridinecarbonitrile] showed an EC50 of no more than 100 nM.
The value for `CCOc1ncc(-c2nc(-c3ccc4c(c3)CCN(C(=O)CN)CC4)no2)cc1C#N` [Example 113, 2-(ethyloxy)-5-[3-(3-glycyl-2,3,4,5-tetrahydro-1H-3-benzazepin-7-yl)-1,2,4-oxadiazol-5-yl]-3-pyridinecarbonitrile] was no more than 1000 nM; that for `CC(C)Oc1ccc(-c2nc(-c3ccc4c(c3)CCN(CCO)CC4)no2)cc1C#N` [Example 19, 5-{3-[3-(2-Hydroxyethyl)-2,3,4,5-tetrahydro-1H-3-benzazepin-7-yl]-1,2,4-oxadiazol-5-yl}-2-[(1-methylethyl)oxy]benzonitrile] was no more than 100 nM.
The same measure for `Cc1c(-c2noc(-c3ccc(OC(C)C)c(C#N)c3)n2)ccc2c1CCN(C(=O)[C@](C)(N)CO)C2` [Example 85, 2-[(1-methylethyl)oxy]-5-{3-[5-methyl-2-(2-methyl-D-seryl)-1,2,3,4-tetrahydro-6-isoquinolinyl]-1,2,4-oxadiazol-5-yl}benzonitrile]: no more than 100 nM; for `CC(C)Oc1ncc(-c2nc(-c3ccc4c(c3)CCN(C[C@H](O)CO)CC4)no2)cc1C#N` [Example 96, 5-(3-{3-[(2S)-2,3-dihydroxypropyl]-2,3,4,5-tetrahydro-1H-3-benzazepin-7-yl}-1,2,4-oxadiazol-5-yl)-2-[(1-methylethyl)oxy]-3-pyridinecarbonitrile]: no more than 10 nM.
The value for `Cc1c(-c2noc(-c3ccc(OC(C)C)c(C#N)c3)n2)ccc2c1CCN(CC(=O)NC[C@H](C)O)C2` [Example 121, 2-[6-(5-{3-cyano-4-[(1-methylethyl)oxy]phenyl}-1,2,4-oxadiazol-3-yl)-5-methyl-3,4-dihydro-2(1H)-isoquinolinyl]-N-[(2S)-2-hydroxypropyl]acetamide hydrochloride] was no more than 10 nM.
In turn, `CNC(=O)CCN1CCc2c(ccc(-c3nnc(-c4ccc(OC(C)C)c(C#N)c4)s3)c2C)C1` [Example 11, 3-[6-(5-{3-Cyano-4-[(1-methylethyl)oxy]phenyl}-1,3,4-thiadiazol-2-yl)-5-methyl-3,4-dihydro-2(1H)-isoquinolinyl]-N-methylpropanamide] had an EC50 of no more than 100 nM.
`Cc1c(-c2nnc(-c3ccc(OC(C)C)c(C#N)c3)s2)ccc2c1CCN(CCO)C2` [Example 15, 5-{5-[2-(2-Hydroxyethyl)-5-methyl-1,2,3,4-tetrahydro-6-isoquinolinyl]-1,3,4-thiadiazol-2-yl}-2-[(1-methylethyl)oxy]benzonitrile]: the EC50 is no more than 100 nM.
The value for `CC(C)Oc1ccc(-c2nc(-c3ccc4c(c3)CCN(C(=O)CN[C@@H](C)CO)CC4)no2)cc1C#N` [Example 99, 5-[3-(3-{N-[(1S)-2-hydroxy-1-methylethyl]glycyl}-2,3,4,5-tetrahydro-1H-3-benzazepin-7-yl)-1,2,4-oxadiazol-5-yl]-2-[(1-methylethyl)oxy]benzonitrile hydrochloride] was no more than 10 nM.
`Cc1c(-c2nnc(-c3ccc(OC(C)C)c(C#N)c3)s2)ccc2c1CCN(CCCC(N)=O)C2` [Example 13, 4-[6-(5-{3-Cyano-4-[(1-methylethyl)oxy]phenyl}-1,3,4-thiadiazol-2-yl)-5-methyl-3,4-dihydro-2(1H)-isoquinolinyl]butanamide]: the EC50 is no more than 1000 nM.
The value for `COCCN1CCc2ccc(-c3noc(-c4ccc(OC(C)C)c(C#N)c4)n3)cc2CC1` [Example 21, 2-[(1-Methylethyl)oxy]-5-(3-{3-[2-(methyloxy)ethyl]-2,3,4,5-tetrahydro-1H-3-benzazepin-7-yl}-1,2,4-oxadiazol-5-yl)benzonitrile] was no more than 100 nM; that for `CC(C)Oc1ccc(-c2nnc(-c3cccc4c3CCN(CCC(=O)N(C)C)C4)s2)cc1C#N` [Example 46, 3-[5-(5-{3-cyano-4-[(1-methylethyl)oxy]phenyl}-1,3,4-thiadiazol-2-yl)-3,4-dihydro-2(1H)-isoquinolinyl]-N,N-dimethylpropanamide] was no more than 1000 nM.
In turn, `COCCN1CCc2c(ccc(-c3nnc(-c4ccc(OC(C)C)c(C#N)c4)s3)c2C)C1` [Example 17, 2-[(1-Methylethyl)oxy]-5-(5-{5-methyl-2-[2-(methyloxy)ethyl]-1,2,3,4-tetrahydro-6-isoquinolinyl}-1,3,4-thiadiazol-2-yl)benzonitrile hydrochloride] had an EC50 of no more than 1000 nM.
